Assay results reported in the supplement of paper PMC10307832.

Tests used:
Assay in all cases: relative viability (nuclei count vs DMSO), 5 days (fraction); higher = more cells survive
SK-LU-1 = tested on: SK-LU-1
Outline: (§1)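 A single step with final 0.05% Triton X-100, 1% formaldehyde and 1 ug/ml Hoechst fixed the cells and stained nuclei 5 days after treatment. Lung cancer cell lines in 1536-well plates had been treated by pin tool the day after seeding with one drug alone or a fixed anchor-drug dose plus five library-drug doses (not always all listed) in √10 steps, and nuclei were counted on 4× images. Relative viability is the ratio of nuclei in treated wells to nuclei in vehicle wells, taken as the median of duplicate plates.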

COR-L 105 = tested on: COR-L 105
Outline: as §1

NCI-H1975 = tested on: NCI-H1975
Outline: as §1

NCI-H1437 = tested on: NCI-H1437
Outline: as §1

NCI-H23 = tested on: NCI-H23
Outline: as §1

NCI-H727 = tested on: NCI-H727
Outline: as §1

HCC-827 = tested on: HCC-827
Outline: as §1

NCI-H460 = tested on: NCI-H460
Outline: as §1

NCI-H1755 = tested on: NCI-H1755
Outline: as §1

HOP-62 = tested on: HOP-62
Outline: as §1

NCI-H2009 = tested on: NCI-H2009
Outline: as §1

HCC-366 = tested on: HCC-366
Outline: as §1

HARA = tested on: HARA
Outline: as §1

A-427 = tested on: A-427
Outline: as §1

LCLC-103H = tested on: LCLC-103H
Outline: as §1

SW 1573 = tested on: SW 1573
Outline: as §1

NCI-H1355 = tested on: NCI-H1355
Outline: as §1

NCI-H1915 = tested on: NCI-H1915
Outline: as §1

NCI-H1395 = tested on: NCI-H1395
Outline: as §1

EMC-BAC-2 = tested on: EMC-BAC-2
Outline: as §1

NCI-H1792 = tested on: NCI-H1792
Outline: as §1

NC(=O)Nc1cc(-c2cccc(F)c2)sc1C(=O)N[C@H]1CCCNC1 [AZD7762] + Nc1ncn([C@H]2C[C@H](O)[C@@H](CO)O2)c(=O)n1 [Decitabine] (partner 2 µM)
relative viability (SK-LU-1; first compound 0.01 µM): 0.609
relative viability (SK-LU-1; first compound 0.03162 µM): 0.782
relative viability (SK-LU-1; first compound 0.1 µM): 0.49
relative viability (SK-LU-1; first compound 0.3162 µM): 0.281
relative viability (SK-LU-1; first compound 1 µM): 0.204
relative viability (COR-L 105; first compound 0.01 µM): 0.711
relative viability (COR-L 105; first compound 0.03162 µM): 0.664
relative viability (COR-L 105; first compound 0.1 µM): 0.643
relative viability (COR-L 105; first compound 0.3162 µM): 0.55
relative viability (COR-L 105; first compound 1 µM): 0.508
relative viability (NCI-H1975; first compound 0.01 µM): 0.427
relative viability (NCI-H1975; first compound 0.03162 µM): 0.391
relative viability (NCI-H1975; first compound 0.1 µM): 0.439
relative viability (NCI-H1975; first compound 0.3162 µM): 0.396
relative viability (NCI-H1975; first compound 1 µM): 0.266
relative viability (NCI-H1437; first compound 0.01 µM): 0.638
relative viability (NCI-H1437; first compound 0.03162 µM): 0.622
relative viability (NCI-H1437; first compound 0.1 µM): 0.721
relative viability (NCI-H1437; first compound 0.3162 µM): 0.656
relative viability (NCI-H1437; first compound 1 µM): 0.57
relative viability (NCI-H23; first compound 0.01 µM): 0.329
relative viability (NCI-H23; first compound 0.03162 µM): 0.376
relative viability (NCI-H23; first compound 0.1 µM): 0.296
relative viability (NCI-H23; first compound 0.3162 µM): 0.331
relative viability (NCI-H23; first compound 1 µM): 0.284
relative viability (NCI-H727; first compound 0.01 µM): 1.01
relative viability (NCI-H727; first compound 0.03162 µM): 1.11
relative viability (NCI-H727; first compound 0.1 µM): 0.895
relative viability (NCI-H727; first compound 0.3162 µM): 0.959
relative viability (NCI-H727; first compound 1 µM): 0.536
relative viability (HCC-827; first compound 0.01 µM): 0.312
relative viability (HCC-827; first compound 0.03162 µM): 0.428
relative viability (HCC-827; first compound 0.1 µM): 0.362
relative viability (HCC-827; first compound 0.3162 µM): 0.338
relative viability (HCC-827; first compound 1 µM): 0.233
relative viability (NCI-H460; first compound 0.01 µM): 0.657
relative viability (NCI-H460; first compound 0.03162 µM): 0.488
relative viability (NCI-H460; first compound 0.1 µM): 0.451
relative viability (NCI-H460; first compound 0.3162 µM): 0.26
relative viability (NCI-H460; first compound 1 µM): 0.0798
relative viability (NCI-H1755; first compound 0.01 µM): 0.76
relative viability (NCI-H1755; first compound 0.03162 µM): 0.839
relative viability (NCI-H1755; first compound 0.1 µM): 0.847
relative viability (NCI-H1755; first compound 0.3162 µM): 0.922
relative viability (NCI-H1755; first compound 1 µM): 0.703
relative viability (HOP-62; first compound 0.01 µM): 0.216
relative viability (HOP-62; first compound 0.03162 µM): 0.23
relative viability (HOP-62; first compound 0.1 µM): 0.248
relative viability (HOP-62; first compound 0.3162 µM): 0.284
relative viability (HOP-62; first compound 1 µM): 0.299
relative viability (NCI-H2009; first compound 0.01 µM): 0.468
relative viability (NCI-H2009; first compound 0.03162 µM): 0.417
relative viability (NCI-H2009; first compound 0.1 µM): 0.373
relative viability (NCI-H2009; first compound 0.3162 µM): 0.378
relative viability (NCI-H2009; first compound 1 µM): 0.3
relative viability (HCC-366; first compound 0.01 µM): 0.332
relative viability (HCC-366; first compound 0.03162 µM): 0.407
relative viability (HCC-366; first compound 0.1 µM): 0.337
relative viability (HCC-366; first compound 0.3162 µM): 0.309
relative viability (HCC-366; first compound 1 µM): 0.154
relative viability (HARA; first compound 0.01 µM): 0.633
relative viability (HARA; first compound 0.03162 µM): 0.507
relative viability (HARA; first compound 0.1 µM): 0.66
relative viability (HARA; first compound 0.3162 µM): 0.539
relative viability (HARA; first compound 1 µM): 0.211
relative viability (A-427; first compound 0.01 µM): 0.582
relative viability (A-427; first compound 0.03162 µM): 0.648
relative viability (A-427; first compound 0.1 µM): 0.633
relative viability (A-427; first compound 0.3162 µM): 0.554
relative viability (A-427; first compound 1 µM): 0.314
relative viability (LCLC-103H; first compound 0.01 µM): 0.766
relative viability (LCLC-103H; first compound 0.03162 µM): 0.824
relative viability (LCLC-103H; first compound 0.1 µM): 0.764
relative viability (LCLC-103H; first compound 0.3162 µM): 0.725
relative viability (LCLC-103H; first compound 1 µM): 0.829
relative viability (SW 1573; first compound 0.01 µM): 0.565
relative viability (SW 1573; first compound 0.03162 µM): 0.523
relative viability (SW 1573; first compound 0.1 µM): 0.482
relative viability (SW 1573; first compound 0.3162 µM): 0.324
relative viability (SW 1573; first compound 1 µM): 0.172
relative viability (NCI-H1355; first compound 0.01 µM): 0.352
relative viability (NCI-H1355; first compound 0.03162 µM): 0.385
relative viability (NCI-H1355; first compound 0.1 µM): 0.317
relative viability (NCI-H1355; first compound 0.3162 µM): 0.407
relative viability (NCI-H1355; first compound 1 µM): 0.475
relative viability (NCI-H1915; first compound 0.01 µM): 0.276
relative viability (NCI-H1915; first compound 0.03162 µM): 0.297
relative viability (NCI-H1915; first compound 0.1 µM): 0.294
relative viability (NCI-H1915; first compound 0.3162 µM): 0.337
relative viability (NCI-H1915; first compound 1 µM): 0.326
relative viability (NCI-H1395; first compound 0.01 µM): 0.866
relative viability (NCI-H1395; first compound 0.03162 µM): 0.727
relative viability (NCI-H1395; first compound 0.1 µM): 0.65
relative viability (NCI-H1395; first compound 0.3162 µM): 0.476
relative viability (NCI-H1395; first compound 1 µM): 0.354
relative viability (EMC-BAC-2; first compound 0.01 µM): 1.03
relative viability (EMC-BAC-2; first compound 0.03162 µM): 1.01
relative viability (EMC-BAC-2; first compound 0.1 µM): 1.09
relative viability (EMC-BAC-2; first compound 0.3162 µM): 1.13
relative viability (EMC-BAC-2; first compound 1 µM): 0.933
relative viability (NCI-H1792; first compound 0.01 µM): 0.507
relative viability (NCI-H1792; first compound 0.03162 µM): 0.579
relative viability (NCI-H1792; first compound 0.1 µM): 0.662
relative viability (NCI-H1792; first compound 0.3162 µM): 0.582
relative viability (NCI-H1792; first compound 1 µM): 0.68
